# “Also recorded” adds a separate entry of the source.
# What was measured:
# Format in all cases: cell-based, human
# [1] = system: A2780 ovarian carcinoma cells; assay: Gene expression profiling (RNAseq) of A2780 cells
# Description: FIG. 7: Schematic representation of KEGG p53 pathway-related genes and their cellular roles.
# Activation of p53 occurs in response to DNA damage (so called “DNA damage response”, DDR) or ribosomal stress (RS) and conveys signals that arrest cell cycle and induce cell death.
# This group entailed the following gene transcripts: ZFAND2A; KCTD10; MDM2; PLK2; DDIT3; DNAJB9; PSMD6; RYBP; PSMD10; SPSB3; PSMB8; PELI1; RNF103; DNAJB2; UBE2H; ATXN3; PSEN1; RCHY1; UBR1; ANAPC16; JKAMP; DDA1; PSMA6; TMUB2; TRIM72; SPOPL; UBE2J1; ARIH1; NPLOC4; CDC26; USP19; UFD1; TNFAIP1; PSMB6; DERL1; UBE2V2; SELENOS; PSMA1; UBE2.
# γH2Ax = γH2Ax immunoblot (DNA damage response marker) in A2780 cells; conditions: 6 hrs, increasing concentrations, relative to untreated controls
# Protocol: FIG. 9. […] A2780 cells were cultured for 6 hrs in the presence of drug concentrations as indicated. (B) Effects of siRNA targeting RPL11 (siRPL11), Chek2 (siChek2) or the unrelated luciferase (Luci) genes on RPL11 and Chek2 mRNA levels quantified by RT-PCR. (C) Effects of siRpl11 on Enone-2 and oxaliplatin (OXA)-induced p53 activation. Expression levels relative to GAPDH are indicated; untreated controls (CNT) were given the arbitrary value of 1. […] Expression levels relative to GAPDH are indicated; untreated controls (CNT) were given the arbitrary value of 1.
# [2] = system: 2780CP ovarian carcinoma cells; assay: Combination with bortezomib in 2780CP cells; conditions: 2 hours bortezomib pre-treatment, then 48 hour co-culture with Enone-2
# Protocol: The arrows in the microphotographs of (A) depict 2780CP cells with apoptotic morphology following treatment with 5 nM bortezomib in combination with 0.5 μM Enone-2.
# Proteasome inhibitors have been reported to enhance platinum-induced toxicity in cis-platin-resistant ovarian cancer cells. […] To address this hypothesis, 2780CP ovarian carcinoma cells were pre-treated for 2 hours with different concentrations of the proteasomal inhibitor bortezomib, a drug in clinical use, followed by a 48 hour co-culture with Enone-2.
# [3] = system: A2780 ovarian carcinoma cells; assay: Clonogenic assay; conditions: 12 hours treatment with 2.5 μM or 5.0 μM, colonies on day 10, compared with cis-platin
# Description: The long-term effects of Enone-2 on tumor cell survival were examined by using clonogenic assays which assess the ability of single cells to survive and reproduce to form colonies. […] The colonies formed on day 10 were visualized by staining with crystal violet following cell fixation and enumerated.
smiles,measurement,setting,value
"C[C@@]1(O)C=CC(=O)[C@H]1c1ccc(F)c2ccccc12 (stereo in doubt) [Enone-2, 5-(4-fluoronaphthalen-1-yl)-4-hydroxy-4-methylcyclopent-2-en-1-one]",transcripts of proteasome-mediated ubiquitin-dependent protein catabolic process,"[1]; 2.5 μM for 6 hours, bioinformatic analysis",enrichment of up-regulated transcripts
same,p53 pathway activation (gene expression profiling),[1]; 2.5 μM for 6 hrs or 14 hrs,activation of the p53 pathway
same,γH2Ax induction (marker of DDR),γH2Ax,no effect relative to untreated controls
same,cytotoxicity of combination with bortezomib compared to each agent alone,[2],augmentation of cytotoxicity compared to each agent alone; also recorded: higher cytotoxicity in relation to each agent alone
same,number of colonies formed,[3],lower than the equivalent dose of cis-platin

# — patent US20250268844A1, “ANTICANCER AGENTS BASED ON CYCLOPENTENONES” (UNIVERSITY OF CRETE, priority 2022, published 2025)
